Laboratory results as given in patent publication US10717716B2, “1,3,4-oxadiazole derivative compounds as histone deacetylase 6 inhibitor, and the pharmaceutical composition comprising the same” (Chong Kun Dang Pharmaceutical Corp., priority 2015, dated 2020).

Target: T1, human recombinant HDAC6 (Homo sapiens, UniProt Q9UBN7)
T1 construct: purchased Calbiochem 382180
T1 sequence (Q9UBN7 1-1215): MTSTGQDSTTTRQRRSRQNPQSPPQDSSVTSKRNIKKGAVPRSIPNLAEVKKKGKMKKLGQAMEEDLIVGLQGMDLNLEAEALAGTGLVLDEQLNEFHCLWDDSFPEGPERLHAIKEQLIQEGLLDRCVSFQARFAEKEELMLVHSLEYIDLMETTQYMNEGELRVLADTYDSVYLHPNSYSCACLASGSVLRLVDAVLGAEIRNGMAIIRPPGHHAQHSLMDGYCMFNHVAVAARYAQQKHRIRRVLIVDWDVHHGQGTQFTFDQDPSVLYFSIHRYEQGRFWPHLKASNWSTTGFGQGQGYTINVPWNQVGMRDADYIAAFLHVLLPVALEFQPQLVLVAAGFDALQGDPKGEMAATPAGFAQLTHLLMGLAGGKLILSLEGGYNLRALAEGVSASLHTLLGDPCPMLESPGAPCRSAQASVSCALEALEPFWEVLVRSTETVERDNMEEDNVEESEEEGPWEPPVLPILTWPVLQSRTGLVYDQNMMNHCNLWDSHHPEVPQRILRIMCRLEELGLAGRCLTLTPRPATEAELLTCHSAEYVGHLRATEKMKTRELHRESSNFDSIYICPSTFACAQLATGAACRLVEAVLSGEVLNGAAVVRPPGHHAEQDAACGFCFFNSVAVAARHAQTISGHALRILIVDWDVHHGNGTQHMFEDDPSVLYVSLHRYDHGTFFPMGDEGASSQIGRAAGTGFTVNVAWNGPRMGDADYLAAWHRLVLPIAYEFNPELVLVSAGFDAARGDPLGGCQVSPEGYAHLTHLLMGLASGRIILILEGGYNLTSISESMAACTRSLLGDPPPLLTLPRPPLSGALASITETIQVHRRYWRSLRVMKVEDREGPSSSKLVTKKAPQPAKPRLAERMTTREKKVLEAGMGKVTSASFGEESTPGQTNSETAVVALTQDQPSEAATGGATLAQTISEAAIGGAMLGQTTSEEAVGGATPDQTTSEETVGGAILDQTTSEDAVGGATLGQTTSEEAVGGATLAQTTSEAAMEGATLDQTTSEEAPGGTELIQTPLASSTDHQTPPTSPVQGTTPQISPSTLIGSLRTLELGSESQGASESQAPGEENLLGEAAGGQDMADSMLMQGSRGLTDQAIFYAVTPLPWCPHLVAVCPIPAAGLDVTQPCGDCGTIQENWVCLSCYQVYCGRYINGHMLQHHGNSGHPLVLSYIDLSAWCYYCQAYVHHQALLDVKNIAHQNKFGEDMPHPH
Test: HDAC6 enzyme activity inhibition assay (HDAC Fluorimetric Drug Discovery Kit)
Type: biochemical
Details: for HDAC6 selectivity (fold): HDAC6 over HDAC1; for IC50: human recombinant HDAC6, same protocol as HDAC1, read-out: HDAC6
Procedure, shortened: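 Fluorimetric deacetylase assay: 5-fold serial compound dilutions, 0.3 μg recombinant human enzyme (HDAC1 or HDAC6, same protocol), 10 μM Fluor de Lys-SIRT1 substrate, 60 min at 30 °C. Signal developed 30 min, measured at 360/460 nm; IC50 values derived.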

Row | SMILES | HDAC6 selectivity (fold) | IC50 [nM]
1 | O=C(CN1CCN(CCNC(=O)N(Cc2ccc(-c3nnc(C(F)F)o3)cc2F)c2ccccc2)CC1)N1CCOCC1 [Compound 21984, 1-(4-(5-(Difluoromethyl)-1,3,4-oxadiazol-2-yl)-2-fluorobenzyl)-3-(2-(4-(2-morpholino-2-oxoethyl)piperazin-1-yl)ethyl)-1-phenylurea] | 107 | 93
2 | O=C(NCCN1CCCOCC1)N(Cc1ccc(-c2nnc(C(F)F)o2)cc1F)c1ccccc1 [Compound 21986, 3-(2-(1,4-Oxazepan-4-yl)ethyl)-1-(4-(5-(difluoromethyl)-1,3,4-oxadiazol-2-yl)-2-fluorobenzyl)-1-phenylurea] | 207 | 48
3 | O=C(NCCN1CCC[C@@H]1C(F)(F)F)N(Cc1ccc(-c2nnc(C(F)F)o2)cc1F)c1ccccc1 [Compound 21987, (R)-1-(4-(5-(difluoromethyl)-1,3,4-oxadiazol-2-yl)-2-fluorobenzyl)-1-phenyl-3-(2-(2-(trifluoromethyl)pyrrolidin-1-yl)ethyl)urea] | 47 | 213
4 | O=C(NCCN1CCC[C@H]1C(F)(F)F)N(Cc1ccc(-c2nnc(C(F)F)o2)cc1F)c1ccccc1 [Compound 21988, (S)-1-(4-(5-(difluoromethyl)-1,3,4-oxadiazol-2-yl)-2-fluorobenzyl)-1-phenyl-3-(2-(2-(trifluoromethyl)pyrrolidin-1-yl)ethyl)urea] | 33 | 301
5 | CC1CCN(CCNC(=O)N(Cc2ccc(-c3nnc(C(F)F)o3)cc2F)c2ccccc2)CC1 [Compound 21989, 1-(4-(5-(Difluoromethyl)-1,3,4-oxadiazol-2-yl)-2-fluorobenzyl)-3-(2-(4-methylpiperidin-1-yl)ethyl)-1-phenylurea] | 80 | 124
6 | O=C(NCCN1CCC(F)CC1)N(Cc1ccc(-c2nnc(C(F)F)o2)cc1F)c1ccccc1 [Compound 21990, 1-(4-(5-(Difluoromethyl)-1,3,4-oxadiazol-2-yl)-2-fluorobenzyl)-3-(2-(4-fluoropiperidin-1-yl)ethyl)-1-phenylurea] | 100 | 100
7 | O=C1CCN(CCNC(=O)N(Cc2ccc(-c3nnc(C(F)F)o3)cc2F)c2ccccc2)CC1 [Compound 21991, 1-(4-(5-(Difluoromethyl)-1,3,4-oxadiazol-2-yl)-2-fluorobenzyl)-3-(2-(4-oxopiperidin-1-yl)ethyl)-1-phenylurea] | 120 | 83
8 | C[C@@H]1CN(CCNC(=O)N(Cc2ccc(-c3nnc(C(F)F)o3)cc2F)c2ccccc2)C[C@H](C)N1 [Compound 21992, 1-(4-(5-(Difluoromethyl)-1,3,4-oxadiazol-2-yl)-2-fluorobenzyl)-3-(2-((3S,5R)-3,5-dimethylpiperazin-1-yl)ethyl)-1-phenylurea] | 133 | 75
9 | CN1CCN(CCNC(=O)N(Cc2ccc(-c3nnc(C(F)F)o3)cc2F)c2ccccc2)CC1 [Compound 21993, 1-(4-(5-(Difluoromethyl)-1,3,4-oxadiazol-2-yl)-2-fluorobenzyl)-3-(2-(4-methylpiperazin-1-yl)ethyl)-1-phenylurea] | 117 | 86
10 | CCN1CCN(CCNC(=O)N(Cc2ccc(-c3nnc(C(F)F)o3)cc2F)c2ccccc2)CC1 [Compound 21994, 1-(4-(5-(Difluoromethyl)-1,3,4-oxadiazol-2-yl)-2-fluorobenzyl)-3-(2-(4-ethylpiperazin-1-yl)ethyl)-1-phenylurea] | 81 | 123
11 | CC(=O)N1CCN(CCNC(=O)N(Cc2ccc(-c3nnc(C(F)F)o3)cc2F)c2ccccc2)CC1 [Compound 21995, 3-(2-(4-Acetylpiperazin-1-yl)ethyl)-1-(4-(5-(difluoromethyl)-1,3,4-oxadiazol-2-yl)-2-fluorobenzyl)-1-phenylurea] | 111 | 90
